The results in this text go back to patent US20240218022A1, “ANTI-VISTA MACROCYCLIC PEPTIDES AND COMPOSITIONS” (BRISTOL-MYERS SQUIBB COMPANY, priority 2022, published 2024).

Positions of bridges follow the written chain, without caps; N, C: chain ends. Non-standard residues stand in square brackets, D forms with d. Residues, ends and D or L forms follow the SMILES beside them. 2Nal = N[C@@H](Cc1ccc2ccccc2c1)C(=O)O; Tic = O=C(O)[C@@H]1Cc2ccccc2CN1; Cit = NC(=O)NCCC[C@H](N)C(=O)O; Ahp(2) = CCCCC[C@H](N)C(=O)O; NMeNle = CCCC[C@H](NC)C(=O)O; NHexGly = CCCCCCNCC(=O)O; Nle = CCCC[C@H](N)C(=O)O

Usually IC50 stands for the concentration that gives 50% inhibition.

This experiment has as its target T1, mouse VISTA (mVISTA) (Mus musculus, UniProt Q9D659).
T1 construct: expressed in transfected cells; host or cells: Human embryonic kidney 293T cells
T1 sequence (Q9D659 33-308): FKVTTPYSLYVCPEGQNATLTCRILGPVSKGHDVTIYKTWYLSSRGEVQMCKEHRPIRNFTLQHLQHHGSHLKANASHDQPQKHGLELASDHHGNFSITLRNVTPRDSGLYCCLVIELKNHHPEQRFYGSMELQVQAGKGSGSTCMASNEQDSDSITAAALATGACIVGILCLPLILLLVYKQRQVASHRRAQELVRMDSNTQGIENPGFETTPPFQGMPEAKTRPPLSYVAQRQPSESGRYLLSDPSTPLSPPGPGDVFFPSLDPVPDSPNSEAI
As to the kind of experiment: Cell-Based Binding High-Content Assay For mVISTA (HC CBA mVISTA). Conditions: cell-based binding high-content assay, mVISTA; the 16th table; read-out: HC CBA mVISTA IC50. The procedure, abridged: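 Read-out: Alexa 647–streptavidin signal imaged on fixed, Hoechst-stained mVISTA-293T cells, with IC50 taken from a four-parameter logistic curve. Compounds competed with 2 nM biotinylated peptide for 30 min at room temperature, tested under both no-wash and wash (1 h compound, media exchange, 1 h) formats.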
As to `CCCCCCN1CC(=O)N[C@@H](Cc2ccc(O)cc2)C(=O)N[C@@H](CCCC)C(=O)NCC(=O)N[C@@H](CCCNC(N)=O)C(=O)N[C@@H](CC(C)C)C(=O)N[C@@H](CCCCC)C(=O)N2CCC[C@H]2C(=O)N[C@@H](C(C)C)C(=O)N[C@@H](CC(=O)O)C(=O)N[C@H](C(=O)NCC(N)=O)CSCC(=O)N[C@@H](Cc2ccc3ccccc3c2)C(=O)N[C@@H](Cc2ccc(O)cc2)C(=O)N[C@@H](CC(=O)O)C1=O` [Ex 1303] ({CH2CO}-[2Nal]YD[NHexGly]Y[Nle]G[Cit]L[Ahp(2)]PVDCG-NH2; thioether N-14), the IC50 is 8.8 nM. In the case of `CCCCCCN1CC(=O)N[C@@H](Cc2ccc(O)cc2)C(=O)N[C@@H](CCCC)C(=O)N[C@@H](CC(N)=O)C(=O)N[C@@H](CCCNC(=N)N)C(=O)N2Cc3ccccc3C[C@H]2C(=O)N[C@@H](CCCCC)C(=O)N2CCC[C@H]2C(=O)N[C@@H](C(C)C)C(=O)N[C@@H](CO)C(=O)N[C@H](C(=O)NCC(N)=O)CSCC(=O)N[C@@H](Cc2ccc3ccccc3c2)C(=O)N[C@@H](Cc2ccc(O)cc2)C(=O)N[C@@H](CC(=O)O)C1=O` [Ex 1304] ({CH2CO}-[2Nal]YD[NHexGly]Y[Nle]NR[Tic][Ahp(2)]PVSCG-NH2; thioether N-14), the concentration for half-maximal inhibition (IC50) turned out to be 31.5 nM. Under `CCCCCCN1CC(=O)N[C@@H](Cc2ccc(O)cc2)C(=O)N[C@@H](CCCC)C(=O)N[C@@H](CC(N)=O)C(=O)N[C@@H](CCCNC(N)=O)C(=O)N2Cc3ccccc3C[C@H]2C(=O)N[C@@H](CCCCC)C(=O)N2CCC[C@H]2C(=O)N[C@@H](C(C)C)C(=O)N[C@@H](CC(=O)O)C(=O)N[C@H](C(=O)NCC(N)=O)CSCC(=O)N[C@@H](Cc2ccc3ccccc3c2)C(=O)N[C@@H](Cc2ccc(O)cc2)C(=O)N[C@@H](CC(=O)O)C1=O` [Ex 1305] ({CH2CO}-[2Nal]YD[NHexGly]Y[Nle]N[Cit][Tic][Ahp(2)]PVDCG-NH2; thioether N-14) stands 10.3 nM; under `CCCCCCN1CC(=O)N[C@@H](Cc2ccc(O)cc2)C(=O)N[C@@H](CCCC)C(=O)N[C@@H](CC(N)=O)C(=O)N[C@@H](CCCNC(N)=O)C(=O)N2Cc3ccccc3C[C@H]2C(=O)N[C@@H](CCCCC)C(=O)N2CCC[C@H]2C(=O)N[C@@H](C(C)C)C(=O)N[C@@H](CO)C(=O)N[C@H](C(=O)NCC(N)=O)CSCC(=O)N[C@@H](Cc2ccc3ccccc3c2)C(=O)N[C@@H](Cc2ccc(O)cc2)C(=O)N[C@@H](CC(=O)O)C1=O` [Ex 1306] ({CH2CO}-[2Nal]YD[NHexGly]Y[Nle]N[Cit][Tic][Ahp(2)]PVSCG-NH2; thioether N-14), 25.2 nM. With `CCCCCCN1CC(=O)N[C@@H](Cc2ccc(O)cc2)C(=O)N[C@@H](CCCC)C(=O)N[C@@H](CC(N)=O)C(=O)N[C@@H](CCCNC(=N)N)C(=O)N2Cc3ccccc3C[C@H]2C(=O)N[C@@H](CCCCC)C(=O)N2CCC[C@H]2C(=O)N[C@@H](C(C)C)C(=O)N[C@@H](CC(=O)O)C(=O)N[C@H](C(=O)NCC(N)=O)CSCC(=O)N[C@@H](Cc2ccc3ccccc3c2)C(=O)N[C@@H](Cc2ccc(O)cc2)C(=O)N[C@@H](CC(=O)O)C1=O` [Ex 1307] ({CH2CO}-[2Nal]YD[NHexGly]Y[Nle]NR[Tic][Ahp(2)]PVDCG-NH2; thioether N-14), the IC50 was determined as 11.4 nM. The value for `CCCCCCN1CC(=O)N[C@@H](Cc2ccc(O)cc2)C(=O)N[C@@H](CCCC)C(=O)N[C@@H](CC(N)=O)C(=O)N[C@@H](CCCNC(=N)N)C(=O)N(C)[C@@H](CCCC)C(=O)N[C@@H](CCCCC)C(=O)N2CCC[C@H]2C(=O)N[C@@H](C(C)C)C(=O)N[C@@H](CC(=O)O)C(=O)N[C@H](C(=O)NCC(=O)O)CSCC(=O)N[C@@H](Cc2ccc3ccccc3c2)C(=O)N[C@@H](Cc2ccc(O)cc2)C(=O)N[C@@H](CC(=O)O)C1=O` [Ex 1308] ({CH2CO}-[2Nal]YD[NHexGly]Y[Nle]NR[NMeNle][Ahp(2)]PVDCG-OH; thioether N-14) was 9.5 nM; that for `CCCCCCN1CC(=O)N[C@@H](Cc2ccc(O)cc2)C(=O)N[C@@H](C(C)C)C(=O)NCC(=O)N[C@@H](CCCNC(=N)N)C(=O)N[C@@H](CC(C)C)C(=O)N[C@@H](CCCCC)C(=O)N2CCC[C@H]2C(=O)N[C@@H](C(C)C)C(=O)N[C@@H](CC(=O)O)C(=O)N[C@H](C(=O)N[C@@H](CC(C)C)C(N)=O)CSCC(=O)N[C@@H](Cc2ccc3ccccc3c2)C(=O)N[C@@H](Cc2ccc(O)cc2)C(=O)N[C@@H](CC(=O)O)C1=O` [Ex 1309] ({CH2CO}-[2Nal]YD[NHexGly]YVGRL[Ahp(2)]PVDCL-NH2; thioether N-14) was 5.2 nM.

As for `CCCCCCN1CC(=O)N[C@@H](Cc2ccc(O)cc2)C(=O)N[C@@H](C(C)C)C(=O)NCC(=O)N[C@@H](CCCNC(=N)N)C(=O)N[C@@H](CC(C)C)C(=O)N[C@@H](CCCCC)C(=O)N2CCC[C@H]2C(=O)N[C@@H](C(C)C)C(=O)N[C@@H](CC(=O)O)C(=O)N[C@H](C(=O)N[C@@H](CC(N)=O)C(N)=O)CSCC(=O)N[C@@H](Cc2ccc3ccccc3c2)C(=O)N[C@@H](Cc2ccc(O)cc2)C(=O)N[C@@H](CC(=O)O)C1=O` [Ex 1310] ({CH2CO}-[2Nal]YD[NHexGly]YVGRL[Ahp(2)]PVDCN-NH2; thioether N-14), the IC50 turned out to be 3.4 nM. With `CCCCCCN1CC(=O)N[C@@H](Cc2ccc(O)cc2)C(=O)N[C@@H](CCCC)C(=O)N[C@@H](CC(N)=O)C(=O)N[C@@H](CCCNC(=N)N)C(=O)N[C@@H](CC(C)C)C(=O)N[C@@H](CCCCC)C(=O)N2CCC[C@H]2C(=O)N[C@@H](C(C)C)C(=O)N[C@@H](CC(=O)O)C(=O)N[C@H](C(=O)N[C@@H](CC(N)=O)C(N)=O)CSCC(=O)N[C@@H](Cc2ccc3ccccc3c2)C(=O)N[C@@H](Cc2ccc(O)cc2)C(=O)N[C@@H](CC(=O)O)C1=O` [Ex 1311] ({CH2CO}-[2Nal]YD[NHexGly]Y[Nle]NRL[Ahp(2)]PVDCN-NH2; thioether N-14), the IC50 is 8.3 nM.

Turning to `CCCCCCN1CC(=O)N[C@@H](Cc2ccc(O)cc2)C(=O)N[C@@H](C(C)C)C(=O)NCC(=O)N[C@@H](CCCNC(=N)N)C(=O)N[C@@H](CC(C)C)C(=O)N[C@@H](CCCCC)C(=O)N2CCC[C@H]2C(=O)N[C@@H](C(C)C)C(=O)N[C@@H](CC(=O)O)C(=O)N[C@H](C(=O)N[C@@H](CCCNC(=N)N)C(N)=O)CSCC(=O)N[C@@H](Cc2ccc3ccccc3c2)C(=O)N[C@@H](Cc2ccc(O)cc2)C(=O)N[C@@H](CC(=O)O)C1=O` [Ex 1312] ({CH2CO}-[2Nal]YD[NHexGly]YVGRL[Ahp(2)]PVDCR-NH2; thioether N-14), the IC50 came to 7.7 nM. Under `CCCCCCN1CC(=O)N[C@@H](Cc2ccc(O)cc2)C(=O)N[C@@H](C(C)C)C(=O)NCC(=O)N[C@@H](CCCNC(=N)N)C(=O)N[C@@H](CC(C)C)C(=O)N[C@@H](CCCCC)C(=O)N2CCC[C@H]2C(=O)N[C@@H](C(C)C)C(=O)N[C@@H](CC(=O)O)C(=O)N[C@H](C(=O)N[C@@H](CO)C(N)=O)CSCC(=O)N[C@@H](Cc2ccc3ccccc3c2)C(=O)N[C@@H](Cc2ccc(O)cc2)C(=O)N[C@@H](CC(=O)O)C1=O` [Ex 1314] ({CH2CO}-[2Nal]YD[NHexGly]YVGRL[Ahp(2)]PVDCS-NH2; thioether N-14) stands 1.4 nM. Under `CCCCCCN1CC(=O)N[C@@H](Cc2ccc(O)cc2)C(=O)N[C@@H](CCCC)C(=O)N[C@@H](CC(N)=O)C(=O)N[C@@H](CCCNC(=N)N)C(=O)N[C@@H](CC(C)C)C(=O)N[C@@H](CCCCC)C(=O)N2CCC[C@H]2C(=O)N[C@@H](C(C)C)C(=O)N[C@@H](CC(=O)O)C(=O)N[C@H](C(=O)N[C@@H](CO)C(N)=O)CSCC(=O)N[C@@H](Cc2ccc3ccccc3c2)C(=O)N[C@@H](Cc2ccc(O)cc2)C(=O)N[C@@H](CC(=O)O)C1=O` [Ex 1315] ({CH2CO}-[2Nal]YD[NHexGly]Y[Nle]NRL[Ahp(2)]PVDCS-NH2; thioether N-14) stands 37.1 nM. Under `CCCCCCN1CC(=O)N[C@@H](Cc2ccc(O)cc2)C(=O)N[C@@H](C(C)C)C(=O)NCC(=O)N[C@@H](CCCNC(N)=O)C(=O)N[C@@H](CC(C)C)C(=O)N[C@@H](CCCCC)C(=O)N2CCC[C@H]2C(=O)N[C@@H](C(C)C)C(=O)N[C@@H](CC(=O)O)C(=O)N[C@H](C(=O)N[C@@H](CO)C(N)=O)CSCC(=O)N[C@@H](Cc2ccc3ccccc3c2)C(=O)N[C@@H](Cc2ccc(O)cc2)C(=O)N[C@@H](CC(=O)O)C1=O` [Ex 1316] ({CH2CO}-[2Nal]YD[NHexGly]YVG[Cit]L[Ahp(2)]PVDCS-NH2; thioether N-14) stands 10.6 nM. Consider `CCCCCCN1CC(=O)N[C@@H](Cc2ccc(O)cc2)C(=O)N[C@@H](CCCC)C(=O)N[C@@H](CC(=O)O)C(=O)N[C@@H](CCCNC(=N)N)C(=O)N[C@@H](CC(C)C)C(=O)N[C@@H](CCCCC)C(=O)N2CCC[C@H]2C(=O)N[C@@H](C(C)C)C(=O)N[C@@H](CC(=O)O)C(=O)N[C@H](C(=O)N[C@@H](CO)C(N)=O)CSCC(=O)N[C@@H](Cc2ccc3ccccc3c2)C(=O)N[C@@H](Cc2ccc(O)cc2)C(=O)N[C@@H](CC(=O)O)C1=O` [Ex 1317] ({CH2CO}-[2Nal]YD[NHexGly]Y[Nle]DRL[Ahp(2)]PVDCS-NH2; thioether N-14), for which the IC50 was determined as 17.5 nM. With `CCCCCCN1CC(=O)N[C@@H](Cc2ccc(O)cc2)C(=O)N[C@@H](CCCC)C(=O)N[C@@H](CC(=O)O)C(=O)N[C@@H](CCCNC(=N)N)C(=O)N(C)[C@@H](CCCC)C(=O)N[C@@H](CCCCC)C(=O)N2CCC[C@H]2C(=O)N[C@@H](C(C)C)C(=O)N[C@@H](CC(=O)O)C(=O)N[C@H](C(=O)N[C@@H](CO)C(N)=O)CSCC(=O)N[C@@H](Cc2ccc3ccccc3c2)C(=O)N[C@@H](Cc2ccc(O)cc2)C(=O)N[C@@H](CC(=O)O)C1=O` [Ex 1318] ({CH2CO}-[2Nal]YD[NHexGly]Y[Nle]DR[NMeNle][Ahp(2)]PVDCS-NH2; thioether N-14), the IC50 was 11.9 nM.
